Counter-ions that a name gives are not always drawn.
Tests used:
full-length β-catenin = full-length β-catenin (Homo sapiens (Human), UniProt P35222); experiment: Streptavidin protein pull-down from SW480 cell lysates; type: binding; details: 1 μM
Procedure: Pull-Down Experiments. Colorectal cancer SW480 cells (70-80% confluency) in T75 flask were lysed first in 1 mL buffer A containing 50 mM Tris (pH 7.4), 150 mM NaCl, 1% Nonidet P-40, 2 mM EDTA, and protease inhibitors. Cell debris was removed by centrifugation at 10,000 g for 20 min at 4° C. To 500 μL SW480 cell lysates was added 1 or 10 μM Biotin-36 and the mixture was incubated at 4° C. for 3 h. Then, 25 μL Streptavidin Sepharose beads (5-1638, Sigma) were added to the lysate mixture and rotated at 4° C. for 2 h. The lysate mixture was centrifuged at 4000 rpm for 2 min at 4° C. The beads were washed with buffer B (20 mM Tris pH 7.4, 150 mM NaCl, 0.1% NP-40) for 4 times. The beads were resuspended in 60 μL of 2×SDS sample buffer. After boiling, the samples were loaded onto 8% SDS polyacrylamide gel for electrophoretic analysis. Separated proteins were transferred onto nitrocellulose membranes for immunoblot analysis. The antibody against β-catenin (610153, BD Biosciences) were incubated with the membranes. IRDye 680LT goat anti-mouse IgG (827-11080, LiCOR) was used as the secondary antibody. The images were detected by the Odyssey Infrared Imaging System (LiCOR). Experiments were performed in duplicate.

β-catenin/BCL9 PPI = β-catenin/BCL9 PPI (Homo sapiens (Human), UniProt P35222); experiment: AlphaScreen competitive inhibition assay of β-catenin/BCL9 PPI; type: binding; details: mean ± standard deviation (n = 3); for Ki: derived from IC50, read-out: Ki ± SD
β-catenin/BCL9 PPI, sequence (P35222 whole entry): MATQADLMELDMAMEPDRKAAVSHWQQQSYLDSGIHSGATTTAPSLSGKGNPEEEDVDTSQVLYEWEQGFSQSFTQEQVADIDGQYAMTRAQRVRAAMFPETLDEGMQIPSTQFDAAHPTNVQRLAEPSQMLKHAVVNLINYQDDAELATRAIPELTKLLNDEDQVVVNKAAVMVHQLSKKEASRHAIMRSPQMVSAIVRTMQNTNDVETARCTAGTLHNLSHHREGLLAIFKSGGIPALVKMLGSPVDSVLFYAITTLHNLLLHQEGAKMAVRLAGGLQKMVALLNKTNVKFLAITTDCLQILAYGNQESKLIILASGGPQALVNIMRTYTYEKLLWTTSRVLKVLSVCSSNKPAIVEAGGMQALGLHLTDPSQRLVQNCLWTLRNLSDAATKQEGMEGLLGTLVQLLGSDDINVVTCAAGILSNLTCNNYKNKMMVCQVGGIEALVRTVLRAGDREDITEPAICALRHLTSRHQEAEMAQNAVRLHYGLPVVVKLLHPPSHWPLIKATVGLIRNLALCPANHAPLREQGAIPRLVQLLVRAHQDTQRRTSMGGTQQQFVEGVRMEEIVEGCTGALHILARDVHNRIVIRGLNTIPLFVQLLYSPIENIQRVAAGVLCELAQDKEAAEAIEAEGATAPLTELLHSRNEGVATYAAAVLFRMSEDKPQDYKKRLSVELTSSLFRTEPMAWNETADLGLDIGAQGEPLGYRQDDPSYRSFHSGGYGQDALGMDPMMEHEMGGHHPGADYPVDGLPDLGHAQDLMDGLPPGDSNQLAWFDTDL
Procedure: AlphaScreen Assays of β-Catenin and BCL9 Interaction. Experiments were performed in white opaque 384-well plates from PerkinElmer (Waltham, MA), and the samples were read on a Biotek Synergy 2 plate reader (Winooski, VT) with excitation at 680 nm and emission at 570 nm. The standard AlphaScreen protocol was used with a sensitivity setting of 200. All dilutions were made in 1× assay buffer containing 25 mM Hepes (pH 7.4), 100 mM NaCl, 0.01% Triton X-100 and 0.1% BSA to minimize nonspecific interactions. For the competitive inhibition assays of β-catenin/BCL9 PPI, the negative control (equivalent to 0% inhibition) refers to 5.0 nM biotinylated BCL9, 50 nM His6-tagged β-catenin, and 10 μg/mL donor and acceptor beads in a final volume of 25 μL assay buffer, but no tested inhibitor present. The positive control (equivalent to 100% inhibition) refers to 5.0 nM biotinylated BCL9 and 10 μg/mL donor and acceptor beads in a final volume of 25 μL assay buffer.
For the β-catenin/BCL9 assay, 5 nM biotinylated BCL9 and 50 nM His6-tagged β-catenin were incubated in assay buffer for 30 min. Different concentrations of the tested inhibitor were added and incubated in 20 μL assay buffer for another 1 h. All of the assay plates were covered and gently mixed on an orbital shaker. The donor and acceptor beads were then added to the plates to a final concentration of 10 μg/mL in 25 μL assay buffer. The mixture was incubated for 1 h before detection. The IC50 value was determined by nonlinear least-square analysis of GraphPad Prism 8.0. The Ki values were derived from the IC50 values using a method reported by Wang and coworkers.^65 The equation used is Ki=[I]50/([L]50/Kd+[P]0/Kd+1) (Where [I]50 denotes the concentration of the free inhibitor at 50% inhibition, [L]50 is the concentration of the free labeled ligand at 50% inhibition, [P]0 is the concentration of the free protein at 0% inhibition, and Kd is the dissociation constant of the protein-ligand complex). All of the experiments were performed in triplicate and carried out in the presence of 1% DMSO for small-molecule inhibitors. Each compound was assayed at least by three independent experiments. The results were expressed as mean±standard deviation.

full-length β-catenin, sequence (P35222 whole entry): as above

| SMILES | binding with β-catenin (pull-down, Western blot) (full-length β-catenin) | Ki (β-catenin/BCL9 PPI) | IC50 (β-catenin/BCL9 PPI) |
| --- | --- | --- | --- |
| CC(C)(C)C1CCC(c2cc(C(=O)N3CCC(Oc4cc(N5CCNCC5)ccc4C#N)CC3)ccc2O[C@@H]2CNC[C@H]2OCCOCCOCCNC(=O)CCCC[C@@H]2SCC3NC(=O)NC32)CC1.O=C(O)C(F)(F)F.O=C(O)C(F)(F)F (relative stereo) [Biotin-37, trans-N-(2-(2-(2-((4-(2-(cis- and trans-4-(tert-butyl)cyclohexyl)-4-(4-(2-cyano-5-(piperazin-1-yl)phenoxy)piperidine-1-carbonyl)phenoxy)pyrrolidin-3-yl)oxy)ethoxy)ethoxy)ethyl)-5-((4S)-2-oxohexahydro-1H-thieno[3,4-d]imidazol-4-yl)pentanamide ditrifluoroacetic acid] | effectively bound with full-length β-catenin | – | – |
| Cn1cc(-c2cc(C(=O)N3CCC(Oc4cc(F)cc(N5CCNCC5)c4)CC3)ccc2O[C@H]2CCNC2)cn1 [Compound 13, (S)-(4-(3-fluoro-5-(piperazin-1-yl)phenoxy)piperidin-1-yl)(3-(1-methyl-1H-pyrazol-4-yl)-4-(pyrrolidin-3-yloxy)phenyl)methanone dihydrochloride] | – | ≤ 10 µM | ≤ 10 µM |
| CC(C)(C)C1CCC(c2cc(C(=O)N3CCC(Oc4cc(N5CCNCC5)ccc4C(=O)O)CC3)ccc2O[C@H]2CCNC2)CC1 (stereo in doubt) [Compound 40, cis- and trans-(S)-2-((1-(3-(4-(tert-butyl)cyclohexyl)-4-(pyrrolidin-3-yloxy)benzoyl)piperidin-4-yl)oxy)-4-(piperazin-1-yl)benzoic acid dihydrochloride] | – | ~84 µM | ~100 µM |
| O=C(c1ccc(O[C@@H]2CCNC2)c(C2CCCCC2)c1)N1CCC(Oc2cc(F)cc(N3CCNCC3)c2)CC1 [Compound 7, (R)-(3-cyclohexyl-4-(pyrrolidin-3-yloxy)phenyl)(4-(3-fluoro-5-(piperazin-1-yl)phenoxy)piperidin-1-yl)methanone dihydrochloride] | – | ≤ 60 µM | ≤ 70 µM |
| CC(C)C(=O)N1CCC(c2cc(C(=O)N3CCC(Oc4cc(F)cc(N5CCNCC5)c4)CC3)ccc2O[C@H]2CCNC2)CC1 [Compound 22, (S)-1-(4-(5-(4-(3-fluoro-5-(piperazin-1-yl)phenoxy)piperidine-1-carbonyl)-2-(pyrrolidin-3-yloxy)phenyl)piperidin-1-yl)-2-methylpropan-1-one dihydrochloride] | – | ≤ 50 µM | ≤ 50 µM |
| O=C(c1ccc(OC2CCNCC2)c(C2CCCCC2)c1)N1CCC(Oc2cc(F)cc(N3CCNCC3)c2)CC1 [Compound 6, (3-cyclohexyl-4-(piperidin-4-yloxy)phenyl)(4-(3-fluoro-5-(piperazin-1-yl)phenoxy)piperidin-1-yl)methanone ditrifluoroacetic acid] | – | > 84 µM | > 100 µM |
| CC(C)(C)C1CCC(c2cc(C(=O)N3CCC(Oc4cc(F)cc(N5CCNCC5)c4)CC3)ccc2O[C@H]2CCNC2)CC1 (stereo in doubt) [Compound 19, cis- and trans-(S)-(3-(4-(tert-butyl)cyclohexyl)-4-(pyrrolidin-3-yloxy)phenyl)(4-(3-fluoro-5-(piperazin-1-yl)phenoxy)piperidin-1-yl)methanone dihydrochloride] | – | ≤ 5 µM | ≤ 5 µM |
| O=C(c1ccc(O[C@H]2CCNC2)c(C2CCOCC2)c1)N1CCC(Oc2cc(F)cc(N3CCNCC3)c2)CC1 [Compound 20, (S)-(4-(3-fluoro-5-(piperazin-1-yl)phenoxy)piperidin-1-yl)(4-(pyrrolidin-3-yloxy)-3-(tetrahydro-2H-pyran-4-yl)phenyl)methanone dihydrochloride] | – | ~84 µM | ~100 µM |
| COC(=O)c1ccc(N2CCNCC2)cc1OC1CCN(C(=O)c2ccc(O[C@H]3CCNC3)c(C3CCC(C(C)(C)C)CC3)c2)CC1 (stereo in doubt) [Compound 39, cis- and trans-methyl (S)-2-((1-(3-(4-(tert-butyl)cyclohexyl)-4-(pyrrolidin-3-yloxy)benzoyl)piperidin-4-yl)oxy)-4-(piperazin-1-yl)benzoate dihydrochloride] | – | 14 ± 0.87 µM | 17 ± 1.1 µM |
| CC(C)(C)C1CCC(c2cc(C(=O)N3CCC(Oc4cc(N5CCNCC5)ccc4Cl)CC3)ccc2O[C@H]2CCNC2)CC1 (stereo in doubt) [Compound 36, cis- and trans-(S)-(3-(4-(tert-butyl)cyclohexyl)-4-(pyrrolidin-3-yloxy)phenyl)(4-(2-chloro-5-(piperazin-1-yl)phenoxy)piperidin-1-yl)methanone dihydrochloride] | – | ≤ 5 µM | ≤ 5 µM |
| O=C(c1ccc(O[C@H]2CCNC2)c(C2CCCCC2)c1)N1CCC(Oc2cc(F)cc(N3CC4(CCNCC4)C3)c2)CC1 [Compound 2, (S)-(3-cyclohexyl-4-(pyrrolidin-3-yloxy)phenyl)(4-(3-fluoro-5-(2,7-diazaspiro[3.5]nonan-2-yl)phenoxy)piperidin-1-yl)methanone ditrifluoroacetic acid] | – | > 84 µM | > 100 µM |
| CC(C)(C)C(=O)N1CCC(c2cc(C(=O)N3CCC(Oc4cc(F)cc(N5CCNCC5)c4)CC3)ccc2O[C@H]2CCNC2)CC1 [Compound 24, (S)-1-(4-(5-(4-(3-fluoro-5-(piperazin-1-yl)phenoxy)piperidine-1-carbonyl)-2-(pyrrolidin-3-yloxy)phenyl)piperidin-1-yl)-2,2-dimethylpropan-1-one dihydrochloride] | – | ~84 µM | ~100 µM |
| O=C(c1ccc(O[C@H]2CCNC2)c(-c2ccc3ccccc3c2)c1)N1CCC(Oc2cc(F)cc(N3CCNCC3)c2)CC1 [Compound 12, (S)-(4-(3-fluoro-5-(piperazin-1-yl)phenoxy)piperidin-1-yl)(3-(naphthalen-2-yl)-4-(pyrrolidin-3-yloxy)phenyl)methanone dihydrochloride] | – | ≤ 5 µM | ≤ 5 µM |
| O=C(c1ccc(O[C@H]2CCNC2)c(C2CCN(C(=O)C3CC3)CC2)c1)N1CCC(Oc2cc(F)cc(N3CCNCC3)c2)CC1 [Compound 21, (S)-(3-(1-(cyclopropanecarbonyl)piperidin-4-yl)-4-(pyrrolidin-3-yloxy)phenyl)(4-(3-fluoro-5-(piperazin-1-yl)phenoxy)piperidin-1-yl)methanone dihydrochloride] | – | ≤ 50 µM | ≤ 50 µM |

Source: patent US20240208940A1, “SMALL-MOLECULE INHIBITORS FOR BETA-CATENIN/BCELL LYMPHOMA 9 PROTEIN-PROTEIN INTERACTION” (H. LEE MOFFITT CANCER CENTER AND RESEARCH INSTITUTE, INC., priority 2021, published 2024)
